Measured values as given in patent US10722518B2, “Oxazine derivative for use in the treatment or prevention of cerebral amyloid angiopathy” (Novartis AG, priority 2016, dated 2020).

How the values were obtained:
Assay type in all cases: in vivo, mouse
[1] = 13-week oral safety study in aged APP23 mice: body weight; conditions: chronic treatment, 13 weeks; aged female APP23 mice
Procedure: Body weight range: 26 to 36 g (at start of dosing)
Means and standard deviations (SD), standard error of the mean (SEM) and coefficient of variation (CV) as indicated accordingly were calculated and an Analysis of Variance (ANOVA) performed. For the analysis of body weights a 2way ANOVA with Turkey's multiple comparison test was performed using GraphPad Prism 6. ANOVA with random effects statistical analyses were performed on MRI data using Systat Version 13 (Systat Software, Inc., San Jose, Calif., USA).

Aβ40 = test: Chronic treatment of APP23 mice: Triton TX-100 soluble Aβ40 in brain
Procedure: Frozen mouse forebrains were weighed and homogenized in 9 volumes (w/v) of ice-cold TBS-Complete (20 mM Tris-HCl pH 7.4, 137 mM NaCl, 1× Complete [Protease Inhibitor Cocktail Tablets: 1 836 145, Roche Diagnostics GmbH, Penzberg, Germany]) by sonication (90% duty cycle, output control 5, 40-55 pulses, [Sonifier 450, Branson]). After homogenization several 50 μl aliquots were prepared for analysis and were stored at −80° C.
Human Aβ40 and 42 in mice was determined with the Meso Scale Discovery (MSD) 96-well MULTI-ARRAY human/rodent (6E10) Aβ40/42 Assay (Meso Scale Discovery, Rockville, Md., USA) as described in [RD-2010-00284]. The assay was done according to the manufacturer's instructions except for the calibration curve and the sample preparations. TritonX-100 (TX-100) soluble Aβ40 and 42 was extracted from forebrain with 1% TX-100 using a 50 μl aliquot of each 1:10 forebrain homogenate, mixed with 50 μl 2% TX-100 in TBS complete (20 mM Tris-HCl pH 7.4, 137 mM NaCl, 1× Complete [Protease Inhibitor Cocktail Tablets: 1 836 145, Roche Diagnostics GmbH, Penzberg Germany]) to reach a final concentration of 1% TX-100 and a 1:20 forebrain dilution. The samples were incubated for 15 min on ice and vortexed every 5 min. The samples were ultra-centrifuged (100000×g, 4° C., 15 min) and 50 μl of the clear supernatants were transferred to fresh tubes. The supernatants were further diluted 1:5 in 3% Blocker A solution (from kit) to a final forebrain dilution of 1:100 and applied to the plate.
The calibration curve was prepared in a corresponding dilution of 1% Blocker A solution spiked with synthetic Aβ1-40 peptide (1.56-100 pg/ml) except for non-transgenic mouse brain samples: In this case, the calibration curve was prepared in a correspondingly diluted APP knockout mouse forebrain spiked with synthetic Aβ1-40 peptide (1.56-100 pg/ml). For all samples and standards 25 μl were applied per well. For each determination duplicate wells were done. The mean values from the duplicate wells were used for calculations. The relative units for samples and standards were imported into SOFTmax PRO 4.0 for calculation of standard curves and quantification of samples.
Brain homogenates were extracted with 1% Triton X-100 in buffer and the resulting supernatant was considered to represent soluble forms of APP metabolites. In addition to Aβ40 and 42, we determined the N-terminal APP fragments sAPPα (direct cleavage product of α-secretase) and sAPPβ (Swe) (direct product of BACE1 cleavage). […] Since no change in the APP expression and Aβ generation is known to happen during this age, it is assumed that the increased values in the vehicle group (18-20 mo old) arise from “leakage” out of the Aβ deposits (which increase several fold, see below).

APP23 mice = test: 13-week oral safety study in aged APP23 mice: MRI of microhaemorrhagic lesions; conditions: aged female APP23 mice
Procedure: The APP23 mouse strain was chosen because of the existence of microhaemorrhages in aged animals. Females were chosen because of having a much higher overall Aβ load, a higher Aβ40/Aβ42 ratio and thus more pronounced microhaemorrhages.
β1 antibody administration: intraperitoneal, once weekly. Dosage volume: 0.15 mL/mouse (maximum 10 mL/kg)
Animal species and strain: Mouse; transgenic APP23 (B6.D2-Tg(Thy1App)23/1Sdz)
Sex: Females (females have a much higher overall Aβ load, a higher Aβ40/Aβ42 ratio and thus more pronounced microhaemorrhages)
Age: Approximately 17-18 months (at start of dosing)
For MRI investigations, mice were anesthetized with 1.5% isoflurane (Abbott, Cham, Switzerland) in a mixture of oxygen/N2O (2:1) administered via a face mask and placed in a Plexiglas cradle. […] Respiration was monitored throughout the acquisitions. […]
Acquisition and analysis of the MRI data were performed by a blinded investigator. Sites in the cortex and thalamus presenting signal attenuation with a minimum diameter of 70 μm (lesions) were analyzed throughout the whole brain. To ensure that the same site (lesion) was not counted multiple times, its presence was carefully controlled over several consecutive slices from the 3D data set. The total volume of the lesions was assessed using ImgTool, an IDL (Interactive Data Language Research Systems, Boulder, Colo., USA) based software. […]

C[C@@]1(c2nc(NC(=O)c3ncc(C(F)(F)F)cc3Cl)ccc2F)CO[C@@](C)(C(F)(F)F)C(N)=N1 [Compound 1, N-(6-((3R,6R)-5-amino-3,6-dimethyl-6-(trifluoromethyl)-3,6-dihydro-2H-1,4-oxazin-3-yl)-5-fluoropyridin-2-yl)-3-chloro-5-(trifluoromethyl)picolinamide]
body weight [1]: did not lead to any change in body weight | Aβ40 change vs vehicle (TX-100 soluble) (Aβ40; 0.03 g/kg vs vehicle): −4.6% | Aβ40 change vs vehicle (TX-100 soluble) (Aβ40; 0.3 g/kg vs vehicle): −43.7% | treatment effects on soluble Aβ species from brain tissue and Aβ40 in CSF (Aβ40; high Compound 1 dose): −43.7 to −77% | treatment effects on soluble Aβ species from brain tissue and Aβ40 in CSF (Aβ40; low Compound 1 dose): −4.6 to −20% | total lesion volume detected by MRI (APP23 mice; 1, 2 and 3 months of treatment): did not exacerbate lesion volumes | lesion numbers (mean±SEM) by MRI (APP23 mice; month 3): 11.5±2.0
